The test system of experiment [1] is TNF-α expression in RAW 264.7 cells. As to the kind of experiment: Cytokine expression in LPS-activated mouse macrophage cell line, TNF-α ELISA. It is filed as cell-based. The conditions noted are these: 1 μg/ml LPS, 24 hours. (ELISA stands for enzyme-linked immunosorbent assay.)
For experiment [2], the system named is MCP-1 secretion from human PBMCs. The experiment in a line: MCP-1 secretion from peripheral blood mononuclear cells after peptide exposure (sandwich ELISA). It is filed as cell-based. The conditions noted are these: 24 h exposure, 20 and 100 μg/ml. As for the experimental part: FIG. 13 illustrates stimulation of MCP-1 and Gro-a sectretion from human peripheral blood mononuclear cells (PBMCs) after 24 h exposure to peptides 1-8 (SEQ ID NOs. 1, 29, 2, 8, 9, 19, and 22, respectively) from fraction #23. The experiment was carried out in 4 biological replicates (4 different donors), with 2 technical repeats in each biological experiment. The peptide fragments were tested at 2 concentrations, 20 and 100 μg/ml and MCP-1 and Gro-a were detected by sandwich ELISA kits (BioSource International and eBiosciences, respectively). A positive control peptide (1002) was used in the experiment.
Venous blood from healthy volunteers is collected in Vacutainer® collection tubes containing sodium heparin as an anticoagulant (BD Biosciences). […] The buffy coat is collected and washed twice in RPMI 1640 complete medium, and the number of PBMCs can be determined by trypan blue exclusion. […]
Following 24 hrs of peptide exposure, the tissue culture supernatants are centrifuged at 16,000G (13,000 rpm) at 4° C. for 5 minutes in an IEC MicroMax centrifuge to obtain cell-free samples. […] Cytokines/chemokines are detected by sandwich ELISA kits (BioSource International or eBiosciences) and multiplex kit (Luminex). […] The concentration of the cytokines/chemokines in the culture medium can be quantified by establishing a standard curve with serial dilutions of the recombinant human cytokines/chemokines. […]

Experiment [3] in a line: Oxygen Radical Absorbance Capacity (ORAC) assay. Conditions: synthetic peptides; for ORAC value (scavenging activity): per g of peptide. The method, then:
This assay measures the scavenging capacity of antioxidant nutrients against the peroxyl radical [Diehl-Jones W L and Askin D F. American Association of Critical Care Nurses (AACN) Clin Issues 15: 83 (2004)], which is one of the most common reactive oxygen species (ROS) in the human body. […] To identify the peptides in fraction #23, the sample was injected into an LC-MS/MS system.

For experiment [4], the system named is IL-8 secretion in Caco-2 cells. As to the kind of experiment: LPS induced IL-8 secretion in Caco-2 cell culture model. It is filed as cell-based. The conditions noted are these: 50, 100, 200 μg/ml, 4, 8, 20, 24 h. From the text: Culture medium for non-peptide treated cells was used as control. *P<0.05 indicates a significant difference between the 23-8 treated group and the control group (one-way ANOVA, n=4).

Experiment [5] deals with IL-6 expression in RAW 264.7 cells. As to the kind of experiment: Cytokine expression in LPS-activated mouse macrophage cell line, IL-6 ELISA. It is filed as cell-based. Conditions: 100 μg/ml peptide, 1 μg/ml LPS, 24 hours. As for the experimental part: FIG. 11 illustrates the effects of peptides of fraction #23 and tryptophan on TNF-α and IL-6 expression in RAW 246.7 cells. All values expressed in pg/ml +/− SD. Cells grown in 24-well culture tissue-culture grade plates (Corning) and incubated with 100 μg/ml of one of eight milk peptides 1-8 (SEQ ID NOs. 28, 1, 29, 2, 8, 9, 19, and 22, respectively) and 1 μg/ml LPS.
A mouse macrophage cell line (RAW 264.7) was activated with 1 μg/m1 lipopolysaccharide (LPS), a gram negative bacterial cell wall product which induces the expression of inflammatory cytokines (Interleukin-6 [IL-6] and Tumor Necrosis Factor alpha [TNF-α]) via activation of toll-like receptors [Wu, T. T. et al. Toxicol Let. 195-202 (2009). After incubation with LPS for 24 hours in the presence of the peptides from example 7, cell supernatant was collected and mouse IL-6 and TNF-α titres were determined by a standard micro-plate enzyme-linked immunosorbent assay (ELISA) technique (e-Biosciences).

Entries after “also recorded” stand apart in the source; their conditions may differ.

Regarding `N[C@@H](Cc1c[nH]c2ccccc12)C(=O)O` [tryptophan, L-tryptophan, reference compound], the “TNF-α expression compared to the control (cell culture medium plus LPS)” value (“TNF-α expression compared to the control” for short) in experiment [1] (100 μM tryptophan) is “greatest inhibition”.
On to “HNPI (listed as Homo sapiens) [SEQ ID NO. 28, fragment from human beta casein in fraction #23]”, for which the “levels of MCP-1 from PBMCs” value in experiment [2] was “robust response; also recorded: significant activity”. Also, the “ORAC value (scavenging activity)” value in experiment [3] is given as 114 ±14 uM Trolox/g.
Turning to “ISELGW (listed as Homo sapiens) [SEQ ID NO. 22, tryptophan-containing peptide of fraction #23, not matched to a human milk protein]”, the “levels of MCP-1 from PBMCs” value in experiment [2] was “robust response; also recorded: significantly increased”. In experiment [4], the “LPS induced interleukin-8 (IL-8) secretion” value is given as “decrease”. Further, the IL-6 expression entry in experiment [5] was “significantly reduced”. In addition, the “TNF-α expression compared to the control” value in experiment [1] (100 μg/ml peptide) is recorded as “significantly inhibited”. Moreover, the “radical scavenging activity in ORAC assay (in words)” value (shortened to “radical scavenging activity”) in experiment [3] was “most radical scavenging properties”.
Regarding “PLAQPA (listed as Homo sapiens) [SEQ ID NO. 29, fragment from human beta casein in fraction #23]”, the “TNF-α expression compared to the control” value in experiment [1] (100 μg/ml peptide) is “significantly inhibited”. For the same compound, in experiment [3], the “radical scavenging activity” value is reported as “No scavenging activities”.
Regarding “SEQ ID NO. 2: human beta-casein f(169-173), identified in fraction #23 (VPYPQ; listed as Homo sapiens)”, the “TNF-α expression compared to the control” value in experiment [1] (100 μg/ml peptide) is reported as “significantly inhibited”. The “ORAC value (scavenging activity)” value in experiment [3] worked out at 3940±623 uM Trolox/g.
Turning to “SEQ ID NO. 8: human kappa-casein f(31-36), identified in fraction #23 (VPNSYP; listed as Homo sapiens)”, the “ORAC value (scavenging activity)” value in experiment [3] is reported as 3462±560 uM Trolox/g.
Take “SEQ ID NO. 9: human kappa-casein f(53-58), identified in fraction #23 (NPYVPR; listed as Homo sapiens)”: the “ORAC value (scavenging activity)” value in experiment [3] is on record as 3380±592 uM Trolox/g.
As to “SEQ ID NO. 19: tyrosine-containing peptide of fraction #23, not matched to a human milk protein (YGYTGA; listed as Homo sapiens)”, the “TNF-α expression compared to the control” value in experiment [1] (100 μg/ml peptide) is given as “significantly inhibited”. Also, in experiment [3], the “radical scavenging activity” value is on record as “most radical scavenging properties” and the “ORAC value (scavenging activity)” value is reported as 8205±552 uM Trolox/g.
In the case of “VPVQA (listed as Homo sapiens) [SEQ ID NO. 1, fragment from human beta casein in fraction #23]”, in experiment [1] (100 μg/ml peptide), the “TNF-α expression compared to the control” value is listed as “significantly inhibited”. In experiment [3], the “radical scavenging activity” value is listed as “No scavenging activities”.

These data come from patent publication US8518894B2, “Human milk peptides” (priority 2009, dated 2013).
